Broadly, the IC50 is the concentration needed to halve the response being measured. The Ki is a measure of affinity in units of concentration, obtained from inhibition or displacement.

In experiment [1] the test system is human platelet rich plasma (PRP). Put plainly: ADP induced platelet aggregation assay. Particulars: Homo sapiens, Platelet, read-out: PA IC50 (μM) @ 10 μM ADP, platelet aggregation induced by 10 μM ADP, human PRP.
Experimental: The ability of P2Y1 antagonists covered in the present invention to inhibit platelet aggregation induced by 10 μM ADP was tested using human platelet rich plasma (PRP) as described in Platelet Protocols: Research and Clinical Laboratory Procedures (White, M. M. et al., Academic Press (1999)). Human blood was collected in 30 μM (final concentration in blood) argatroban (GSK) as the anticoagulant at a ratio of 1 ml per 9 ml of blood. The PRP was isolated by centrifugation at 170 g for 12 minutes. The platelet poor plasma (PPP) was used as the blank for optical aggregometry. Compounds of the present invention in DMSO solution was preincubated with 250 μl PRP at 37° C. for 1 minute with stirring speed of 1000 rpm. Aggregation was initiated by addition of 2.5 μl of 1 mM ADP (Chrono-log, Havertown, Pa.) for a final ADP concentration of 10 μM. Platelet aggregation was monitored using Optical Aggregometer (Chrono-log, Havertown, Pa.) and the area under the curve (AUC) at 5 minute was measured. IC50 was calculated using vehicle control as 0% inhibition.
For experiment [2], the target named is cloned human P2Y1 receptors (Homo sapiens (Human), UniProt P47900). As to the kind of experiment: Binding Assay B: Scintillation Proximity Assay (SPA) for P2Y1 binding. Particulars: SPA, [33P] 2MeS-ADP displacement; read-out: P2Y1 Ki (nM) using binding assay B. The gist of the method: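 Scintillation proximity readout of 0.3 nM [^33P] tracer displacement from receptor membranes (~15 fmol receptor, 1.7 μg protein). Binding ran 1 h at room temperature to completion; plates were then centrifuged and aqueous phase aspirated before counting.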
cloned human P2Y1 receptors, sequence (P47900 whole entry): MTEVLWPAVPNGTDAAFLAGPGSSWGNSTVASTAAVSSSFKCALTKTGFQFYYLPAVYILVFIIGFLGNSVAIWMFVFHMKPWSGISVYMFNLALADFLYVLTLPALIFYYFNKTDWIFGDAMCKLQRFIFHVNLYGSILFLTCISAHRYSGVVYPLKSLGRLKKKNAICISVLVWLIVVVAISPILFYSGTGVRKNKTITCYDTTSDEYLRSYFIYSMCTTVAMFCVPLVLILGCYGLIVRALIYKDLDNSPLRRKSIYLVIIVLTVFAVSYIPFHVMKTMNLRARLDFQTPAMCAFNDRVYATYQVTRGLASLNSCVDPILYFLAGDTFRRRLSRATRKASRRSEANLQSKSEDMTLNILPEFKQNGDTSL

`CC(C)CN1CCCC1c1ccc(NC(=O)Nc2ccccc2N2CC3(CCN(CC(C)(C)C)CC3)c3c(Cl)ccc(O)c32)cc1` (stereo not drawn) [Example 57, 1-(2-(4-Chloro-7-hydroxy-1′-neopentylspiro[indoline-3,4′-piperidine]-1-yl)phenyl)-3-(4-(1-isobutylpyrrolidin-2-yl)phenyl)urea]: the half-maximal inhibitory concentration (IC50) in experiment [1] was 0.2 µM. For the same compound, in experiment [2], the inhibition constant (Ki) is 10.4 nM.

In the case of `CC(C)(C)CN1CCC2(CC1)CN(c1ccccc1NC(=O)Nc1ccc(C3CCCN3CC(C)(C)C)cc1)c1c(O)ccc(Cl)c12` (stereo not drawn) [Example 58, 1-(2-(4-Chloro-7-hydroxy-1′-neopentylspiro[indoline-3,4′-piperidine]-1-yl)phenyl)-3-(4-(1-neopentylpyrrolidin-2-yl)phenyl)urea], the IC50 in experiment [1] came to 0.2 µM. Further, in experiment [2], the Ki was determined as 12.4 nM.

As for `CC(C)(C)CN1CCC2(CC1)CN(c1ccccc1NC(=O)Nc1ccc(OC(F)(F)F)cc1)c1c(O)ccc(Cl)c12` [Example 59, 1-(2-(4-Chloro-7-hydroxy-1′-neopentylspiro[indoline-3,4′-piperidine]-1-yl)phenyl)-3-(4-(trifluoromethoxy)phenyl)urea], the IC50 in experiment [1] is 0.4 µM. For the same compound, the Ki in experiment [2] is 7.2 nM.

Regarding `CC(C)(C)CN1CCC2(CC1)CN(c1ccccc1NC(=O)Nc1ccc(C(F)(F)F)cc1)c1c(O)ccc(Cl)c12` [Example 60, 1-(2-(4-Chloro-7-hydroxy-1′-neopentylspiro[indoline-3,4′-piperidin]-1-yl)phenyl)-3-(4-(trifluoromethyl)phenyl)urea], the 50% inhibitory concentration (IC50) in experiment [1] was found to be 0.4 µM. The Ki in experiment [2] stood at 6.4 nM.

Regarding `CC(C)(C)CN1CCC2(CC1)CN(c1ccccc1NC(=O)Nc1csc(Cl)n1)c1c(O)ccc(Cl)c12` [Example 61, 1-(2-(4-Chloro-7-hydroxy-1′-neopentylspiro[indoline-3,4′-piperidin]-1-yl)phenyl)-3-(2-chlorothiazol-4-yl)urea], in experiment [1], the IC50 turned out to be 0.2 µM. Further, the Ki in experiment [2] was 5.8 nM.

For the compound `CC(C)c1nc(NC(=O)Nc2ccccc2N2CC3(CCN(CC(C)(C)C)CC3)c3c(Cl)ccc(O)c32)cs1` [Example 62, 1-(2-(4-Chloro-7-hydroxy-1′-neopentylspiro[indoline-3,4′-piperidine]-1-yl)phenyl)-3-(2-isopropylthiazol-4-yl)urea], in experiment [1], the IC50 is 0.8 µM. Besides, in experiment [2], the Ki stood at 13 nM.

On to `CC(C)(C)CN1CCC2(CC1)CN(c1ccccc1NC(=O)Nc1csc(C(F)(F)F)n1)c1c(O)ccc(Cl)c12` [Example 63, 1-(2-(4-Chloro-7-hydroxy-1′-neopentylspiro[indoline-3,4′-piperidine]-1-yl)phenyl)-3-(2-(trifluoromethyl)thiazol-4-yl)urea], for which the 50% inhibitory concentration (IC50) in experiment [1] is 0.4 µM. Besides, the Ki in experiment [2] was 4.9 nM.

With `CC(C)CN1CCC2(CC1)CN(c1ccccc1NC(=O)Nc1ccc(C(F)(F)F)cc1)c1c(O)ccc(Cl)c12` [Example 64, 1-(2-(4-Chloro-7-hydroxy-1′-isobutylspiro[indoline-3,4′-piperidine]-1-yl)phenyl)-3-(4-(trifluoromethyl)phenyl)urea], the half-inhibitory concentration (IC50) in experiment [1] stood at 1 µM. Moreover, the Ki in experiment [2] came out at 6.5 nM.

As for `CC(C)CN1CCC2(CC1)CN(c1ccccc1NC(=O)Nc1nc3ccc(Cl)cc3s1)c1c(O)ccc(Cl)c12` [Example 65, 1-(2-(4-Chloro-7-hydroxy-1′-isobutylspiro[indoline-3,4′-piperidine]-1-yl)phenyl)-3-(6-chlorobenzo[d]thiazol-2-yl)urea], the IC50 in experiment [1] was 0.4 µM. The Ki in experiment [2] was found to be 7.8 nM.

Take `CC(C)(C)CN1CCC2(CC1)CN(c1ncccc1NC(=O)Nc1nc3ccc(F)cc3s1)c1c(O)ccc(Cl)c12` [Example 66, 1-(2-(4-Chloro-7-hydroxy-1′-neopentylspiro[indoline-3,4′-piperidine]-1-yl)pyridin-3-yl)-3-(6-fluorobenzo[d]thiazol-2-yl)urea]: in experiment [1], the concentration for half-maximal inhibition (IC50) was found to be 1.2 µM. Moreover, in experiment [2], the inhibition constant Ki turned out to be 25.8 nM.

In the case of `CC(C)(C)CN1CCC2(CC1)CN(c1cc(F)ccc1NC(=O)Nc1nc3ccc(F)cc3s1)c1c(O)ccc(Cl)c12` [Example 67, 1-(2-(4-Chloro-7-hydroxy-1′-neoopentylspiro[indoline-3,4′-piperidine]-1-yl)-4-fluorophenyl)-3-(6-fluorobenzo[d]thiazol-2-yl)urea], in experiment [1], the IC50 was found to be 0.3 µM. Also, in experiment [2], the inhibition constant (Ki) worked out at 22.2 nM.

Take `CC(C)(C)CN1CCC2(CC1)CN(c1ccc(C#N)cc1NC(=O)Nc1ccc(OC(F)(F)F)cc1)c1c(O)ccc(Cl)c12` [Example 69, 1-(2-(4-Chloro-7-hydroxy-1′-neopentylspiro[indoline-3,4′-piperidine]-1-yl)-5-cyanophenyl)-3-(4-(trifluoromethoxy)phenyl)urea]: the IC50 in experiment [1] was found to be 0.8 µM. The Ki in experiment [2] is 21.4 nM.

As to `CC(C)(C)CN1CCC2(CC1)CN(c1ccc(C#N)cc1NC(=O)Nc1nc3ccc(F)cc3s1)c1c(O)ccc(Cl)c12` [Example 70, 1-(2-(4-Chloro-7-hydroxy-1′-neopentylspiro[indoline-3,4′-piperidine]-1-yl)-5-cyanophenyl)-3-(6-fluorobenzo[d]thiazol-2-yl)urea], the IC50 in experiment [1] was 1 µM. Also, in experiment [2], the inhibition constant Ki is 29.4 nM.

As for `CC(C)(C)CN1CCC2(CC1)CN(c1ccccc1NC(=O)Nc1nc3c(s1)CN(CC(F)(F)F)CC3)c1c(O)ccc(Cl)c12` [Example 71, 1-(2-(4-Chloro-7-hydroxy-1′-neopentylspiro[indoline-3,4′-piperidine]-1-yl)phenyl)-3-(5-(2,2,2-trifluoroethyl)-4,5,6,7-tetrahydrothiazolo[5,4-c]pyridin-2-yl)urea], in experiment [1], the IC50 worked out at 0.3 µM. Moreover, in experiment [2], the Ki came to 11.1 nM.

Regarding `CC(C)(C)CN1CCC2(CC1)CN(c1ccccc1NC(=O)Nc1nc3c(s1)CN(C(=O)C(F)(F)F)CC3)c1c(O)ccc(Cl)c12` [Example 72, 1-(2-(4-Chloro-7-hydroxy-1′-neopentylspiro[indoline-3,4′-piperidine]-1-yl)phenyl)-3-(5-(2,2,2-trifluoroacetyl)-4,5,6,7-tetrahydrothiazolo[5.4-c]pyridin-2-yl)urea], in experiment [1], the half-maximal inhibitory concentration (IC50) is 0.2 µM. Further, the Ki in experiment [2] came out at 22.4 nM.

As to `CC(C)C(=O)N1CCc2nc(NC(=O)Nc3ccccc3N3CC4(CCN(CC(C)(C)C)CC4)c4c(Cl)ccc(O)c43)sc2C1` [Example 73, 1-(2-(4-Chloro-7-hydroxy-1′-neopentylspiro[indoline-3,4′-piperidine]-1-yl)phenyl)-3-(5-isobutyryl-4,5,6,7-tetrahydrothiazolo [5,4-c]pyriidn-2-yl)urea], in experiment [1], the half-inhibitory concentration (IC50) was 0.5 µM. Besides, the Ki in experiment [2] was 17.9 nM.

On to `CC(C)CN1CCc2nc(NC(=O)Nc3ccccc3N3CC4(CCN(CC(C)(C)C)CC4)c4c(Cl)ccc(O)c43)sc2C1` [Example 74, 1-(2-(4-Chloro-7-hydroxy-1′-neopentylspiro[indoline-3,4′-piperidine]-1-yl)phenyl)-3-(5-isobutyl-4,5,6,7-tetrahydrothiazolo[5,4-c]pyridin-2-yl)urea], for which, in experiment [1], the IC50 was found to be 0.2 µM. The inhibition constant Ki in experiment [2] turned out to be 10.3 nM.

Turning to `COC(=O)c1ccc(O)c2c1C1(CCN(CC(C)(C)C)CC1)CN2c1ccccc1NC(=O)Nc1nc2ccc(F)cc2s1` [Example 77, Methyl 1-(2-(3-(6-fluorobenzo[d]thiazol-2-yl)ureido)phenyl)-7-hydroxy-1′-neopentylspiro[indoline-3,4′-piperidine]-4-carboxylate], the concentration for half-maximal inhibition (IC50) in experiment [1] was 0.3 µM. Besides, the Ki in experiment [2] came out at 8.7 nM.
